Where two headings read alike, the source gives them in different places.
Assays:
xanthine oxidase = xanthine oxidase (Bos taurus, UniProt P80457); experiment: xanthine oxidase inhibitory activity (absorbance at 290 nm, xanthine substrate); type: biochemical; conditions: for activity compared with known xanthine oxidase inhibitors allopurinol, luteolin / activity compared with quercetin: as seen from Table 1; for Total activity: purification from Perilla frutescens (3.73 kg fresh weight); for Total activity / Specific activity: 1 U = activity required for inhibiting 50% of xanthine oxidase; for Specific activity: purification from Perilla frutescens; for Relative intensity: relative to 1.00 (XOI-A and allopurinol), from concentration for 50% inhibitory rate
Protocol: This xanthine oxidase inhibitory activity can be determined, for example, as follows:
Enzyme solution: An enzyme solution is prepared by dissolving 150 μl of xanthine oxidase (15.2 units/ml) in 10 ml of 1/15 M phosphate buffer (pH 7.5).
Substrate solution: A substrate solution is prepared by heating 22.8 mg of xanthine in 1 liter of water to dissolve it.
Determination: 0.1 ml of the enzyme solution and 2.9 ml of phosphate buffer (the same as that described above) are admixed with 1.0 ml of the sample solution and the mixture is incubated at 37° C. for 10 minutes.
Then, 1 ml of the substrate solution preincubated at 37° C. is added to this reaction mixture and, after reaction for 30 minutes, an absorbance at 290 nm (D1) is measured.
Separately, an absorbance at 290 nm (D2) of a reaction mixture obtained by the similar reaction procedure using a heat inactivated enzyme, an absorbance (D3) without addition of the sample solution, and absorbance (D4) of a reaction mixture obtained by using a heat-inactivated enzyme without addition of the sample solution are measured. By using the values obtained by these measurements, the inhibitory rate of xanthine oxidase is calculated by using the following equation:
Inhibitory Rate (%)={1-(D1 -D2)/(D3 -D4 }×100
In Table 2, 1 U represents the activity required for inhibiting 50% of xanthine oxidase.

solubility in solvents = type: physicochemical
[1] = xanthine oxidase, pH 7.5, 37° C., reaction for 30 minutes, read-out: Concentration for 50% inhibitory rate (converted)

xanthine oxidase, sequence (P80457 whole entry): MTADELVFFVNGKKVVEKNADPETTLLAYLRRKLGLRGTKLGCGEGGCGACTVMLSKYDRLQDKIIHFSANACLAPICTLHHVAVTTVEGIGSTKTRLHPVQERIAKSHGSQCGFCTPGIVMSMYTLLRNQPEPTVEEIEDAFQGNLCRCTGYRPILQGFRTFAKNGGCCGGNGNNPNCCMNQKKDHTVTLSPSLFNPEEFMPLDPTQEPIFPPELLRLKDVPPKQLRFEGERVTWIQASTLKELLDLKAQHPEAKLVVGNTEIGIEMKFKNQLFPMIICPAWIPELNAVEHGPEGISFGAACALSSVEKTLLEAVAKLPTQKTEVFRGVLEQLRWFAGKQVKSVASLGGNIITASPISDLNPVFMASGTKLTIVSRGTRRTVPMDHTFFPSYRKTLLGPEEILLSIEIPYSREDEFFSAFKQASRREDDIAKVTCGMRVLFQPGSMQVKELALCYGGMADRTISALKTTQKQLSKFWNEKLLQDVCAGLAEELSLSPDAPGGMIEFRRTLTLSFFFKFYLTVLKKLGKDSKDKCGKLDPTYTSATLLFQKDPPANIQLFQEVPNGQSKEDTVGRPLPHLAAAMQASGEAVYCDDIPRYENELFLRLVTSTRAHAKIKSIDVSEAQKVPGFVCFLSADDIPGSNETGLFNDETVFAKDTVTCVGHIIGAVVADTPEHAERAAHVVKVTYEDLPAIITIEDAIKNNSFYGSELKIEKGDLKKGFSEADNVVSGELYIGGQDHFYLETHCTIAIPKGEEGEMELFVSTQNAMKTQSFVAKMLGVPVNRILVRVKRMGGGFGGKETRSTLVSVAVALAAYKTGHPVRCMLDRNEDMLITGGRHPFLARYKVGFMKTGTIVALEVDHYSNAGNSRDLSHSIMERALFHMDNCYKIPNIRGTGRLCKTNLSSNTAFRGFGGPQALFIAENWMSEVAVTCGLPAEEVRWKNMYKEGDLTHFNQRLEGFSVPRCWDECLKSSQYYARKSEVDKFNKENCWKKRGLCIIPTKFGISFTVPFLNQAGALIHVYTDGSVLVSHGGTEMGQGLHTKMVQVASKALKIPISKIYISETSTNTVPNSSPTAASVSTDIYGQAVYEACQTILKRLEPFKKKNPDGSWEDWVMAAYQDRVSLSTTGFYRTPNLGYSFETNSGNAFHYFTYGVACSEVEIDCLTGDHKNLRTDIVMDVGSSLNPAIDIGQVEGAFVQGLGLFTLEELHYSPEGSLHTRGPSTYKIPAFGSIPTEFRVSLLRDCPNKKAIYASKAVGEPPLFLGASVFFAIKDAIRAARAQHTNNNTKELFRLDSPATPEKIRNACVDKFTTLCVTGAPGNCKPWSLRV

Compound | activity compared with known xanthine oxidase inhibitors allopurinol, luteolin (xanthine oxidase) | activity compared with quercetin (xanthine oxidase) | Total activity (xanthine oxidase) | Specific activity (xanthine oxidase) [μ/mg] | Specific activity, figure in parentheses (relative to ethanol extract = 1) (xanthine oxidase; purification step) | Relative intensity (xanthine oxidase) | IC50 (xanthine oxidase; [1]) [nM] | solubility in methanol, propanol, acetone, ethyl acetate or acetonitrile (solubility in solvents) | solubility in water, chloroform or hexane (solubility in solvents) | Total activity, figure in parentheses (relative to ethanol extract = 100) (xanthine oxidase; purification step, ethanol extract = 100) | IC50 (xanthine oxidase) [nM]
O=C(/C=C/c1ccc(O)c(O)c1)O/C=C\c1cc(O)cc(O)c1 [XOI-B, (Z,E)-2-(3,5-dihydroxyphenyl)ethenylester of 3-(3,4-dihydroxyphenyl)-2-propenoic acid] | almost the same as that of luteolin | superior to that of quercetin | 0.09 × 10^6 (U) | 8040 | 38 | 0.17 | 395 | readily soluble | slightly soluble | – | –
O=C(/C=C/c1ccc(O)c(O)c1)O/C=C\c1ccc(O)c(O)c1 [XOI-A, (Z,E)-2-(3,4-dihydroxyphenyl)ethenylester of 3-(3,4-dihydroxyphenyl)-2-propenoic acid] | comparable to that of allopurinol | superior to that of quercetin | 1.96 × 10^6 (U) | 46600 | 222 | – | 66.8 | readily soluble | slightly soluble | 6 | –
O=c1cc(-c2ccc(O)c(O)c2)oc2cc(O)cc(O)c12 [Luteolin, luteolin, reference compound] | – | – | – | – | – | 0.19 | – | – | – | – | 384

Source: US5212201A, “Xanthine oxidase inhibitor” (priority 1989, dated 1993)
